Reference: patent US11117899B2, “[1,2,4]triazolo[1,5-c]pyrimidine derivative as A2A receptor inhibitor” (MEDSHINE DISCOVERY INC., priority 2017, dated 2021)
≈ marks a conversion by molar mass, not a printed value.

Legend:
[1] = Pharmacokinetics in female Balb/c mice; type: in vivo; conditions: mouse, plasma, single intravenous injection / single oral administration; for bioavailability: read-out: Bioavailability F; for AUC: read-out: Concentration integral AUC; for half-life: read-out: Half-life T1/2 (converted)
Protocol: Objective: To test the pharmacokinetics of compounds in female Balb/c mice in vivo
Balb/c mice (female, 15-30 g, 7-9 weeks old, Shanghai Lingchang)
The pharmacokinetics profile of the compounds in rodent after intravenous injection and oral administrations was tested using a standard protocol. In the assay, the candidate compound was formulated into a clear solution and administrated to the mice through a single intravenous injection, and formulated into a uniform suspension and administrated to the mice through a single oral administration. […] The whole blood samples were collected within 24 hours, centrifuged at 3000 g at 4° C. for 15 minutes, and plasma samples were obtained by separating the supernatant. 20 times volume of acetonitrile solution containing an internal standard was added to precipitate proteins. After centrifugation, the supernatant was collected, to which an equal volume of water was added, and further centrifuged to collect the supernatant. The LC-MS/MS method was used to quantitatively analyze the plasma concentration, and the pharmacokinetics parameters, such as peak concentration, peak time, clearance rate, half-life, area under the curve, and bioavailability were calculated.

[2] = Determination of kinetic solubility; type: physicochemical; conditions: aqueous buffer, kinetic from dmso stock, 50 mM phosphate buffer pH 7.4, 24 hours, room temperature, 200 μM maximum
Protocol: The test compounds were dissolved in DMSO to prepare 10 mmol/L stock solutions. The stock solutions were diluted with 50% ACN/50 mM phosphate buffer (pH 7.4) to prepare standard solutions (1 μM, 20 μM, […]).
490 μL of dissolution medium (50 mM phosphate buffer solution, pH 7.4) was pipetted into a 96-well plate with a single-well volume of 2 mL using a pipette (Eppendorf Research Inc.). 10 μL of the stock solution of each test compounds and QC sample (10 mmol/L DMSO stock solution) were added to the dissolution medium, respectively, and the sample plate was sealed with a sealing film. The final concentration of the test compounds and DMSO in the sample solution were 200 μM and 2%, respectively. The mixture was shaken at 600 rpm for 24 hours at room temperature. 200 μL of the sample solution was transferred into a 96-well filter plate using a pipette and filtered with suction. The filtrate and the standard solution were detected by high performance liquid chromatography (HPLC-DAD). The concentration of the test compounds in the filtrate was calculated by an external standard method, which was the kinetic solubility of the compounds.

[3] = target: T1, Human adenosine A2A receptor (Homo sapiens, UniProt P29274); experiment: Human adenosine A2A receptor calcium flux assay; type: cell-based; conditions: A2A stable CHO cell strain, antagonist mode against agonist NECA at EC80, FLIPR Fluo-4
T1 construct: host or cells: CHO
T1 sequence (P29274 whole entry): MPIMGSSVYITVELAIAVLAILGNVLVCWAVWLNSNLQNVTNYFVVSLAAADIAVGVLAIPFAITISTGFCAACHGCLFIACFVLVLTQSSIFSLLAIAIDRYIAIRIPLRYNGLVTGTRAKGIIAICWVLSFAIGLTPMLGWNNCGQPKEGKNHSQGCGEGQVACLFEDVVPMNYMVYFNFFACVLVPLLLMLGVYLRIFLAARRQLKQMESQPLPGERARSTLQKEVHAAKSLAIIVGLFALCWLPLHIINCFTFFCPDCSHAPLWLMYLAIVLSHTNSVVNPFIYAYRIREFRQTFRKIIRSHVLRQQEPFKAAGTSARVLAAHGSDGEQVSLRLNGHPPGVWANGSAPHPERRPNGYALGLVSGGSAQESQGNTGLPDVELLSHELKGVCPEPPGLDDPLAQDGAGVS
Protocol: Human adenosine A2A receptor calcium flux assay
A2A stable cell strain was constructed by Shanghai WuXi PharmaTech, and the host cell was CHO.
Fluo-4 Direct Kit (Invitrogen, Cat. No. F10471). After the fluorescent detection reagent (specifically binding to calcium ions and causing an increase in fluorescence signal) in the kit was incubated with the cells for a suitable period of time, the compound was added to stimulate the cells to cause changes in intracellular calcium flux, thereby causing changes in the fluorescent signal, which can reflect the strength of the agonistic or inhibitory activity of the compound.
F12+10% fetal bovine serum+geneticin 300 ug/ml+blasticidin 2 ug/ml Compound dilution buffer:
Hanks Balanced Salt Buffer (Invitrogen)+20 mM HEPES, configured before each use
The test compounds were dissolved in DMSO to prepare 10 mM stock solutions. The test compounds were diluted to 0.2 mM with DMSO, and the reference compound CGS-15943 was diluted to 0.015 mM with DMSO. Next, 10 points of three-fold serial dilutions were made with ECHO. 900 nl was transferred to the compound plate (Greiner-781280), and 30 ul of compound dilution buffer was added. The final starting concentration of the test compounds was 1 uM and CGS-15943 was 0.075 uM.
Cryopreserved A2A cells were resuscitated, and then resuspended in culture medium to 1×10^6 cells/ml. The suspension was seeded into 384-well polylysine-coated cell plates (Greiner-781946) at 20 μl/well and incubated overnight in a 5% CO2 incubator at 37° C.
The cell plate prepared the day before was taken out from the incubator, and 20 ul of 2× Fluo-4 Direct™ buffer was added to each well. The plate was incubated for 50 minutes in a 5% CO2 incubator at 37° C. and allowed to stand at room temperature for 10 minutes.
Dilution of agonist NECA: 10 points of three-fold serial dilutions were made with Echo for NECA from a starting concentration of 0.15 mM. 900 nL was then transferred to the corresponding compound plate; and then 30 μl of compound dilution buffer was added to the corresponding compound plate. The final starting concentration was 750 nM.
FLIPR instrument software was run. According to the programmed procedure, 10 ul of compound dilution buffer was added to the cell plate and the fluorescence signal was read. 10 ul of the agonist reference compound at the indicated concentration was then added to the cell plate and the fluorescent signal was read. After reading, the data was exported by the “Max-Min”, “Read 90 to Maximum allowed” method in the software, and the EC80 of the A2A cell line was calculated. The agonist was prepared at a concentration of 6× EC80. A 6× EC80 concentration of a reference compound agonist of the corresponding cells was prepared with a buffer solution, and added at 30 ul/well to the corresponding compound plate for use.
FLIPR instrument software was run. According to the programmed procedure, 10 μl of the test compounds and reference compound at an indicated concentration was added to the cell plate and the fluorescence signal was read. 10 ul of the reference compound agonist at a concentration of 6× EC80 was then added to the cell plate and the fluorescent signal was read. For the agonist detection of the compounds, the data was exported by the “Max-Min”, “Read 1 to 90” method in the software. For the antagonist detection of the compound, the data was exported by the “Max-Min”, “Read 90 to Maximum allowed” method in the software. Data were analyzed by GraphPad Prism 5.0 and the IC50 values of the test compounds were calculated.

Compound | clearance [1] [mL/min/kg] | bioavailability [1] [%] | AUC [1] [µM·h] | half-life [1] [min] | solubility at 24 h [2] [µM] | IC50 [3] [nM]
Cc1cc(-c2nnc(N)nc2-c2ccccc2)cc(C(F)(F)F)n1 [Compound A, reference compound] | 208 | 21.6 | 0.501 | 16.8 | 29.2 (≈ 9.67 µg/mL) | 
Nc1nc(-c2ccccc2)c(-c2cc(Cl)nc(C(F)(F)F)c2)c2ncnn12 [Example B-28] |  |  |  |  | 54.5 (≈ 21.3 µg/mL) | 1.55
Cc1cc(-c2c(-c3ccccc3)nc(N)n3ncnc23)cc(Cl)n1 [Example B-31] | 44.3 | 17.4 | 1.73 | 15 | 56 (≈ 18.9 µg/mL) | 0.28
Cc1cc(-c2c(-c3ccccc3)nc(N)n3ncnc23)cc(C(F)(F)F)n1 [Example A-1] | 51.2 | 41.1 | 3.33 | 28.2 | 185 (≈ 68.5 µg/mL) | 0.23
Cc1cc(-c2c(-c3ccc(F)cc3)nc(N)n3nc(C)nc23)cc(C(F)(F)F)n1 [Example C-46] | 0.54 | 44 | 20.1 | 115 | 172 (≈ 69.2 µg/mL) | 3.08
Cc1cc(-c2c(-c3cccc(F)c3F)nc(N)n3ncnc23)cc(C(F)(F)F)n1 [Example A-3] |  |  |  |  | 92.5 (≈ 37.6 µg/mL) | 0.32
Cc1cc(-c2c(-c3ccccc3)nc(N)n3nc(CO)nc23)cc(C)n1 [Example C-19] | 38.7 | 70.7 | 8.79 | 55.2 | 194 (≈ 67.2 µg/mL) | 0.4
Cc1cc(-c2c(-c3ccc(F)cc3)nc(N)n3nc(CO)nc23)cc(C(F)(F)F)n1 [Example C-43] | 7.51 | 82.9 | 43.9 | 119 | 168 (≈ 70.3 µg/mL) | 1.36
Nc1nc(-c2ccc(F)cc2)c(-c2cc(Cl)nc(C(F)(F)F)c2)c2nc(CO)nn12 [Example C-58] | 2.5 | 123 | 157 | 436 | 78.9 (≈ 34.6 µg/mL) | 1.72
Cc1cc(-c2c(-c3ccccc3)nc(N)n3ncnc23)cc(C)n1 [Example B-5] | 24 | 91 | 19.6 | 19.8 | 197 (≈ 62.3 µg/mL) | 0.28
Cc1cc(-c2c(-c3ccccc3)nc(N)n3nc(CO)nc23)cc(C(F)(F)F)n1 [Example C-33] | 18 | 95.2 | 22 | 72 | > 200 | 0.65
COc1ccccc1-c1nc(N)n2ncnc2c1-c1cc(C)nc(C(F)(F)F)c1 [Example A-4] |  |  |  |  | 160 (≈ 64.1 µg/mL) | 1.08
